Test results from patent publication EP0519427A2, “N-substituted-3-iodopropiolamide, production and use thereof” (priority 1991, dated 1992).

Key:
[1] = test system: Aspergillus Niger (IFO 6341), Penicillium funiculosum (IFO 6345), Rhizopus javanicus (IFO 6354), Aureobasidium pullulans (IFO 6353), Gliocladium virens (IFO …); test: Fungicide activity for wood fungicide, sum of average ratings and damage value over the five fungi; assay type: cell-based; conditions: for damage value: D = S₁ / S₀ × 100, untreated 100.0, lower = higher fungicide activity; for Sum (of average rating values A₁ to A₅): S = A₁ + A₂ + A₃ + A₄ + A₅, untreated 15.0; for wood fungicide activity (statement in words): summary of Table 3
Procedure: This test was conducted according to Specification No.2 of Japan Wood Preserving Association, enacted in 1979 and titled "Test methods of fungicide activity for wood fungicide".
• ① Aspergillus niger van Tieghem IFO 6341 = ATCC 6275 • ② Penicillium funiculosum Thom (formerly : Penicillium luteum Zukal) IFO 6345 = ATCC 9644 • ③ Rhizopus javanicus Takeda (formerly : Rhizopus nigricans Ehrenberg S.N. 32) IFO 6354 • ④ Aureobasidium pullulans (de Bary) Arnaud IFO 6353 = IAM (H. Iizuka, F-24) • ⑤ Gliocladium virens Miller, Gidden & Fosteb IFO 6355 = ATCC 9645 (formerly : Trichoderma viride, T.I.)
The fungi ① , ② , ③ and ⑤ are classified as fungi imperfecti, and the fungus ④ as blue stain fungus.
The Culture medium comprised the potato-sap agar culture medium (specified in the Japan Industrial Standard (JIS) Z 2911- 1960) of 50 ml, put in the conical flask of 100 ml, sterilized by steam at 1.4-1.6 kgf/cm² .G (137.2-156.8 KPa) for 30 minutes.
The fungi to be used were inoculated into the culture medium specified in the previous section and were cultured at 26 ± 2 °C under the relative humidity of 70-80 % for two weeks.
The potato sap of 50 ml, sterilized, cooled to room temperature and to which dioctyl sodium sulfosuccinate, a wetting agent, was added so as to become 0.005 %, was dropped to the fully breeding fungi layer, and was agitated with a platinum spatula in such a way that the spore was torn off. The resulting liquid filtered by sterilized gauze was the spore suspension.
3-5-1 A Petri dish measured 90-100 mm in diameter and 20 mm in height.
3-5-2 Agar liquid (which has no nutrients) of 2 % sterilized by steam was dropped onto the Petri dish sterilized by dry heat, and then was solidified.
3-5-3 Three mm diameter sterilized glass bars or plastic nets made of polypropylene, etc. were placed to prevent the test specimens from touching with agar directly.
3-6-1 The type of trees for wood specimens was beech. The cross section was of grain face, and the dimension was 20 mm wide 3 mm thick and 50 mm long.
3-6-2 Wood specimens were supplied with nutrients in such a way that they were dipped into the potato-sap (the one in the section 3-2, but agar was not added) for 3 minutes.
3-6-3 Nutrient-supplied wood specimens, after drying at 60 °C, were used for testing immediately. They were temporarily stored at 0 °C, but they were served to tests as soon as possible.
The test specimens were of two types, treated and untreated speciments. The treated specimens referred to the one treated with fungicide. The untreated specimens were of two types, the one really untreated and the other treated with solvent only.
3-7-2-1 Nutrients-supplied wood specimens were dried at 60 ± 2 °C, and then their weights (W₀) were measured. Test specimens of 10-20 pieces were piled up in a one liter beaker in such a way that two specimens constant space apart from each other were alternately put on the other two specimens also constant space apart from each other. On the top of the two specimens, a weight was placed. Through the test specimens thus arranged, the fungicide solution was introduced. The level of the fungicide solution was one centimeter above the top specimens. The test specimens were dipped for three minutes after the fungicide solution introduction.
After finishing dipping, the test specimens were wiped softly, and then the weights (W₁) were measured immediately. As control experiment, the same procedure as the above was done using solvent without fungicide.
3-7-2-2 The amounts of solution pick-up and fungicide pick-up were calculated with the following equations: The amount of solution absorption: RL = W₁ - W₀ [formula] The amount of fungicide absorption: Rc = RL × fungicide concentration [formula] 3-7-2-3 Wood specimens treated were placed without contacting each other, then were air-dried for two days, and then served as the treated test specimens. […]

[2] = test system: Coptofermes formosanus SHIRAKI; test: Anti-termite activity, contact toxicity on treated quartz sand; assay type: in vivo
Procedure: This test was conducted on the basis of the method described in Specification No.11 of Japan Wood Preserving Association, enacted in 1981 and titled "The test methods of anti-termite activity for anti-termite agent used in the coating, spraying and dipping treatment, (1) Laboratory test methods".
The termite to be used was Coptofermes formosanus SHIRAKI ("ieshiroari").
4-2-1 The treated quartz sand was prepared as follows : The quartz sand, which passed through a sieve with 60 mesh screen, of 3 g was mixed with the BACTRO-AGAR solution of 1 ml with good agitation. Then, water content was adjusted to 5 %.
4-2-2 The test quartz sand was prepared as follows : The anti-termite agent solution of intended concentration (ppm) was added to the above treated quartz sand, then was mixed, and then was allowed to stand for 14 days to vaporize solvents.
4-2-3 The test quartz sand of 4 g were put into a Petri dish (6 cm in diameter) sterilized with dry heat.
4-2-4 Ten termite workers were randomly sampled from their nest, and then put on the quartz sand.
4-2-5 Each Petri dish was placed in a vessel containing water in the bottom, and then the vessel was allowed to stand in the constant temperature room at 28 ± 2 °C for 14 days. The number of the dead termites was observed and recorded. The first day : every 2 hours for 8 hours. After the second day : every 24 hour.
4-2-6 Test was repeated three times for each concentration of anti-termite agent solution.
4-3-1 Each time when observing, the number of healthy termites and dead termites were recorded.
4-3-2 The results are shown below in Table 4. […]

[3] = concentration 100 ppm, term of contact 1 day
[4] = concentration 100 ppm, term of contact 2 days
[5] = concentration 100 ppm, term of contact 3 days
[6] = concentration 100 ppm, term of contact 5 days
[7] = concentration 1000 ppm, term of contact 1 day
[8] = concentration 1000 ppm, term of contact 2 days
[9] = concentration 1000 ppm, term of contact 3 days
[10] = concentration 1000 ppm, term of contact 5 days

Row | SMILES | damage value [1] | Sum (of average rating values A₁ to A₅) [1] | wood fungicide activity (statement in words) [1] | Death rate (%) [2, 3] | Death rate (%) [2, 4] | Death rate (%) [2, 5] | Death rate (%) [2, 6] | Death rate (%) [2, 7] | Death rate (%) [2, 8] | Death rate (%) [2, 9] | Death rate (%) [2, 10]
1 | CCCCCCCCCCNC(=O)C#CI [Example 2, N-(n-Decyl)-3-iodopropiolamide] | 62.2 | 9.3 | – | – | – | – | – | – | – | – | –
2 | CCCCCNC(=O)C#CI [Example 7, N-(n-Pentyl)-3-iodopropiolamide] | 34.4 | 5.2 | – | – | – | – | – | – | – | – | –
3 | CCC(C)NC(=O)C#CI (stereo not shown) [Example 5, N-(sec-Butyl)-3-iodopropiolamide] | 28.9 | 4.3 | excellent wood fungicide activity | – | – | – | – | – | – | – | –
4 | CCCCCCCNC(=O)C#CI [Example 9, N-(n-Heptyl)-3-iodopropiolamide] | 50.0 | 7.5 | – | – | – | – | – | – | – | – | –
5 | CC(C)(C)NC(=O)C#CI [Example 1, N-(tert-Butyl)-3-iodopropiolamide] | 13.3 | 2.0 | excellent wood fungicide activity | 0% | 0% | 30% | 100% | 0% | 50% | 100% | 100%
6 | CCCCNC(=O)C#CI [Example 4, N-(n-Butyl)-3-iodopropiolamide] | 6.7 | 1.0 | excellent wood fungicide activity | 0% | 0% | 30% | 100% | 0% | 30% | 100% | 100%
7 | CC(C)CNC(=O)C#CI [Example 6, N-Isobutyl-3-iodopropiolamide] | 20.2 | 3.0 | excellent wood fungicide activity | – | – | – | – | – | – | – | –
8 | CCCCCCCCCNC(=O)C#CI [Example 11, N-(n-Nonyl)-3-iodopropiolamide] | 82.2 | 12.3 | – | – | – | – | – | – | – | – | –
9 | CCCCCCCCNC(=O)C#CI [Example 10, N-(n-Octyl)-3-iodopropiolamide] | 54.4 | 8.2 | – | – | – | – | – | – | – | – | –
10 | CCCCCCNC(=O)C#CI [Example 8, N-(n-Hexyl)-3-iodopropiolamide] | 23.3 | 3.5 | excellent wood fungicide activity | 0% | 0% | 20% | 100% | 0% | 0% | 70% | 100%
